From PMC11492916 (OncoTargets and Therapy, 2024)
Values joined by “and” are separate entries in the source; they are usually repeats but may differ in a detail not shown here. Identical values can stand only once.

Legend:
[1] = tested on: T47D; assay: MTT cytotoxicity assay, T47D breast cancer cells; type: cell-based; details: Homo sapiens, 48 h, read-out: IC50, cytotoxic activity against T47D
[2] = tested on: HeLa; assay: MTT cytotoxicity assay, HeLa cervical cancer cells; type: cell-based; details: Homo sapiens, 48 h, read-out: IC50, cytotoxic activity against HeLa

SMILES: COc1cccc2c1C(=O)c1c(O)c3c(c(O)c1C2=O)C[C@@](O)(C(=O)CO)C[C@@H]3O[C@H]1C[C@H](N)[C@H](O)[C@H](C)O1 [DOX, doxorubicin]
- IC50 [1]: 0.17 µg/mL and 310 nM
- IC50 [2]: 3.38 µg/mL and 6.22 µM
